Measurements: ChEMBL document CHEMBL3867421, “The action mechanism of daptomycin” (Bioorg Med Chem, 2016)
Values after ≈ are worked out from the molar mass of the structure shown.

Key:
[1] = test system: Bacillus spizizenii; assay: Antibacterial activity against Bacillus subtilis ATCC 6633 incubated overnight by broth dilution method; assay type: functional
[2] = test system: Staphylococcus aureus; assay: Antibacterial activity against Staphylococcus aureus relative to daptomycin; assay type: functional
[3] = test system: Bacillus subtilis; assay: Antibacterial activity against Bacillus subtilis PY79 after 18 hrs by two-fold serial dilution method relative to daptomycin; assay type: functional
[4] = test system: Bacillus subtilis; assay: Antibacterial activity against Bacillus subtilis relative to daptomycin; assay type: functional
[5] = test system: Staphylococcus aureus; assay: Antibacterial activity against Staphylococcus aureus JKD6004 harboring WalR K208R mutant by microbroth dilution assay; assay type: functional
[6] = test system: Staphylococcus aureus; assay: Antibacterial activity against vancomycin sensitive Staphylococcus aureus JKD6004 by microbroth dilution assay; assay type: functional
[7] = test system: Staphylococcus aureus; assay: Antibacterial activity against Staphylococcus aureus 42 by broth microdilution assay relative to daptomycin; assay type: functional
[8] = test system: Enterococcus faecalis; assay: Antibacterial activity against Enterococcus faecalis 201 by broth microdilution assay relative to daptomycin; assay type: functional
[9] = test system: Enterococcus faecium; assay: Antibacterial activity against Enterococcus faecium 14 by broth microdilution assay relative to daptomycin; assay type: functional
[10] = Membrane permeabilization activity in DOPC/DOPG large unilamellar liposomes assessed as leakage of calcein at 16 ug/ml; assay type: ADME
[11] = Membrane permeabilization activity in DOPC/DOPG large unilamellar liposomes assessed as leakage of calcein at 30 ug/ml preincubated with CaCl2 for 1 hr prior to testing; assay type: ADME
[12] = Protein binding in human plasma by UV/HPLC analysis; assay type: ADME, cell-free; conditions: read-out: PPB (converted)
[13] = test system: Bacillus subtilis; assay: Antibacterial activity against Bacillus subtilis ATCC 1046 incubated overnight by broth dilution method; assay type: functional

SMILES: CCCCCCCCCC(=O)N[C@@H](Cc1c[nH]c2ccccc12)C(=O)N[C@H](CC(N)=O)C(=O)N[C@@H](CC(=O)O)C(=O)N[C@@H]1C(=O)NCC(=O)N[C@@H](CCCNC(=N)CCCSCCC(=O)c2ccc3cc(N(C)C)ccc3c2)C(=O)N[C@@H](CC(=O)O)C(=O)N[C@H](C)C(=O)N[C@@H](CC(=O)O)C(=O)NCC(=O)N[C@H](CO)C(=O)N[C@@H]([C@@H](C)CC(=O)O)C(=O)N[C@@H](CC(=O)c2ccccc2N)C(=O)O[C@@H]1C
- MIC [1]: 10 µg/mL (≈ 5.14 µM)

SMILES: CCCCCCCCCC(=O)N[C@@H](Cc1c[nH]c2ccccc12)C(=O)N[C@H](CC(N)=O)C(=O)N[C@@H](CC(=O)O)C(=O)N[C@H]1CNC(=O)[C@H](CC(=O)c2ccccc2N)NC(=O)[C@H](CCC(=O)O)NC(=O)[C@@H](CO)NC(=O)CNC(=O)[C@H](CC(=O)O)NC(=O)[C@@H](C)NC(=O)[C@H](CC(=O)O)NC(=O)[C@H](CCCN)NC(=O)CNC1=O
- fold change (FC) [2]: 200

SMILES: CCCCCCCCCC(=O)N[C@@H](Cc1c[nH]c2ccccc12)C(=O)N[C@@H](CC(N)=O)C(=O)N[C@@H](CC(=O)O)C(=O)N[C@@H]1C(=O)NCC(=O)N[C@@H](CCCN)C(=O)N[C@@H](CC(=O)O)C(=O)N[C@H](C)C(=O)N[C@@H](CC(=O)O)C(=O)NCC(=O)N[C@H](CC(=O)O)C(=O)N[C@@H](CCC(=O)O)C(=O)N[C@@H](CC(=O)c2ccccc2N)C(=O)O[C@@H]1C
- fold change (FC) [3]: >100

SMILES: CCCCCCCCCC(=O)N[C@@H](Cc1c[nH]c2ccccc12)C(=O)N[C@H](CC(N)=O)C(=O)N[C@@H](CC(=O)O)C(=O)N[C@@H]1C(=O)NCC(=O)N[C@@H](CCCNc2ccc([N+](=O)[O-])c3nonc23)C(=O)N[C@@H](CC(=O)O)C(=O)N[C@H](C)C(=O)N[C@@H](CC(=O)O)C(=O)NCC(=O)N[C@H](CO)C(=O)N[C@@H]([C@@H](C)CC(=O)O)C(=O)N[C@@H](CC(=O)c2ccccc2N)C(=O)O[C@@H]1C
- MIC [1]: 3 µg/mL (≈ 1.68 µM)

SMILES: CCCCCCCCCC(=O)N[C@@H](Cc1c[nH]c2ccccc12)C(=O)N[C@H](CC(N)=O)C(=O)N[C@@H](CC(=O)O)C(=O)N[C@@H]1C(=O)NCC(=O)N[C@@H](CCCN)C(=O)N[C@@H](CC(=O)O)C(=O)N[C@H](CC(N)=O)C(=O)N[C@@H](CC(=O)O)C(=O)NCC(=O)N[C@H](CO)C(=O)N[C@@H](CCC(=O)O)C(=O)N[C@@H](CC(=O)c2ccccc2N)C(=O)O[C@@H]1C
- fold change (FC) [4]: 256

SMILES: CCCCCCCCCC(=O)N[C@@H](Cc1c[nH]c2ccccc12)C(=O)N[C@H](CC(N)=O)C(=O)N[C@@H](CC(=O)O)C(=O)N[C@@H]1C(=O)NCC(=O)N[C@@H](CCCN)C(=O)N[C@@H](CC(=O)O)C(=O)N[C@H](C)C(=O)N[C@@H](CC(=O)O)C(=O)NCC(=O)N[C@H](CC(N)=O)C(=O)N[C@@H]([C@H](C)CC(=O)O)C(=O)N[C@@H]([C@@H](C)CC)C(=O)O[C@@H]1C
- fold change (FC) [4]: 8

SMILES: CCCCCCCCCC(=O)N[C@@H](Cc1c[nH]c2ccccc12)C(=O)N[C@H](CC(N)=O)C(=O)N[C@@H](CC(=O)O)C(=O)N[C@H]1CNC(=O)[C@H](Cc2c[nH]c3ccccc23)NC(=O)[C@H](CCC(=O)O)NC(=O)[C@@H](CO)NC(=O)CNC(=O)[C@H](CC(=O)O)NC(=O)[C@@H](C)NC(=O)[C@H](CC(=O)O)NC(=O)[C@H](CCCN)NC(=O)CNC1=O
- fold change (FC) [2]: 100

SMILES: CCCCCCCCCC(=O)N[C@@H](Cc1c[nH]c2ccccc12)C(=O)N[C@@H](CC(N)=O)C(=O)N[C@@H](CC(=O)O)C(=O)N[C@@H]1C(=O)NCC(=O)N[C@@H](CCCCN)C(=O)N[C@@H](CC(=O)O)C(=O)N[C@H](C)C(=O)N[C@@H](CC(=O)O)C(=O)NCC(=O)N[C@H](CO)C(=O)N[C@@H](CCC(=O)O)C(=O)N[C@@H](Cc2c[nH]c3ccccc23)C(=O)O[C@@H]1C
- fold change (FC) [3]: 33

SMILES: CCCCCCCCCC(=O)N[C@@H](Cc1c[nH]c2ccccc12)C(=O)N[C@@H](CC(N)=O)C(=O)N[C@@H](CC(=O)O)C(=O)N[C@@H]1C(=O)NCC(=O)N[C@@H](CCCN)C(=O)N[C@@H](CC(=O)O)C(=O)N[C@H](C)C(=O)N[C@@H](CC(=O)O)C(=O)NCC(=O)N[C@H](CO)C(=O)N[C@@H]([C@H](C)CC(=O)O)C(=O)N[C@@H](CC(=O)c2ccccc2N)C(=O)O[C@@H]1C [DAPTOMYCIN]
- MIC [5]: 2 µg/mL (≈ 1.23 µM)
- MIC [6]: 0.5 µg/mL (≈ 0.309 µM)

SMILES: CCCCCCCCCC(=O)N[C@@H](Cc1c[nH]c2ccccc12)C(=O)N[C@H](CC(N)=O)C(=O)N[C@@H](CC(=O)O)C(=O)N[C@@H]1C(=O)NCC(=O)N[C@@H](CCCN)C(=O)N[C@@H](CC(=O)O)C(=O)N[C@H](CC(N)=O)C(=O)N[C@@H](CC(=O)O)C(=O)NCC(=O)N[C@H](CO)C(=O)N[C@@H]([C@H](C)CC(=O)O)C(=O)N[C@@H]([C@@H](C)CC)C(=O)O[C@@H]1C
- fold change (FC) [4]: 32

SMILES: CCCCCCCCCC(=O)N[C@@H](Cc1c[nH]c2ccccc12)C(=O)N[C@H](CC(N)=O)C(=O)N[C@@H](CC(=O)O)C(=O)N[C@@H]1C(=O)NCC(=O)N[C@@H](CCCN)C(=O)N[C@@H](CC(=O)O)C(=O)N[C@H](C)C(=O)N[C@@H](CC(=O)O)C(=O)NCC(=O)N[C@H](CC(N)=O)C(=O)N[C@@H](CCC(=O)O)C(=O)N[C@@H](CC(=O)c2ccccc2N)C(=O)O[C@@H]1C
- fold change (FC) [4]: 64

SMILES: CCCCCCCCCC(=O)N[C@@H](Cc1c[nH]c2ccccc12)C(=O)N[C@@H](CC(N)=O)C(=O)N[C@@H](CC(N)=O)C(=O)N[C@@H]1C(=O)NCC(=O)N[C@@H](CCCN)C(=O)N[C@@H](CC(=O)O)C(=O)N[C@H](C)C(=O)N[C@@H](CC(=O)O)C(=O)NCC(=O)N[C@H](CO)C(=O)N[C@@H](CCC(=O)O)C(=O)N[C@@H](CC(=O)c2ccccc2N)C(=O)O[C@@H]1C
- fold change (FC) [3]: 27

SMILES: CCCCCCCCCC(=O)N[C@@H](Cc1c[nH]c2ccccc12)C(=O)NC(CC(N)=O)C(=O)N[C@@H](CC(=O)O)C(=O)N[C@@H]1C(=O)NCC(=O)N[C@@H](CCCN)C(=O)N[C@@H](CC(=O)O)C(=O)N[C@H](C)C(=O)N[C@@H](CC(=O)O)C(=O)NCC(=O)N[C@H](CO)C(=O)N[C@@H]([C@H](C)CC(=O)O)C(=O)N[C@@H](CC(=O)c2ccccc2N)C(=O)O[C@@H]1C (single isomer, unassigned)
- fold change (FC) [7]: 10
- fold change (FC) [8]: 10
- fold change (FC) [9]: 10

SMILES: CCCCCCCCCC(=O)N[C@@H](Cc1c[nH]c2ccccc12)C(=O)N[C@@H](CC(N)=O)C(=O)N[C@@H](CC(=O)O)C(=O)N[C@@H]1C(=O)NCC(=O)N[C@@H](CCCN)C(=O)N[C@@H](CC(=O)O)C(=O)N[C@H](C)C(=O)N[C@@H](CC(=O)O)C(=O)NCC(=O)N[C@H](CO)C(=O)N[C@@H](CCC(=O)O)C(=O)N[C@@H](Cc2c[nH]c3ccccc23)C(=O)O[C@@H]1C
- fold change (FC) [3]: 33

SMILES: CCCCCCCCCC(=O)N[C@@H](Cc1c[nH]c2ccccc12)C(=O)N[C@H](CC(N)=O)C(=O)N[C@@H](CC(=O)O)C(=O)N[C@@H]1C(=O)NCC(=O)N[C@@H](CCCN)C(=O)N[C@@H](CC(=O)O)C(=O)N[C@H](C)C(=O)N[C@@H](CC(=O)O)C(=O)NCC(=O)N[C@H](CO)C(=O)N[C@@H]([C@H](C)CC(=O)O)C(=O)N[C@@H](Cc2ccc(O)cc2)C(=O)O[C@@H]1C
- fold change (FC) [3]: 47

SMILES: CCCCCCCCCC(=O)N[C@@H](Cc1c[nH]c2ccccc12)C(=O)N[C@H](CC(N)=O)C(=O)N[C@@H](CC(=O)O)C(=O)N[C@@H]1C(=O)NCC(=O)N[C@@H](CCCNC(=O)Cc2c(C)c3cc(S(=O)(=O)O)c(N)cc3oc2=O)C(=O)N[C@@H](CC(=O)O)C(=O)N[C@H](C)C(=O)N[C@@H](CC(=O)O)C(=O)NCC(=O)N[C@H](CO)C(=O)N[C@@H]([C@@H](C)CC(=O)O)C(=O)N[C@@H](CC(=O)c2ccccc2N)C(=O)O[C@@H]1C
- MIC [1]: 12 µg/mL (≈ 6.26 µM)

SMILES: CCCCCCCCCC(=O)N[C@@H](Cc1c[nH]c2ccccc12)C(=O)N[C@H](CC(N)=O)C(=O)N[C@@H](CC(=O)O)C(=O)N[C@@H]1C(=O)NCC(=O)N[C@@H](CCCN)C(=O)N[C@@H](CC(=O)O)C(=O)N[C@H](C)C(=O)N[C@@H](CC(=O)O)C(=O)NCC(=O)N[C@H](CO)C(=O)N[C@@H]([C@H](C)CC(=O)O)C(=O)N[C@@H](CC(=O)c2ccccc2N)C(=O)O[C@@H]1C [DAPTOMYCIN]
- Activity [10]: < 10%
- Activity [11]: 100%
- fraction unbound [12]: 0.1

SMILES: CCCCCCCCCC(=O)N[C@@H](Cc1c[nH]c2ccccc12)C(=O)N[C@@H](CC(N)=O)C(=O)N[C@@H](CC(=O)O)C(=O)N[C@@H]1C(=O)NCC(=O)N[C@@H](CCCN)C(=O)N[C@@H](CC(=O)O)C(=O)N[C@H](C)C(=O)N[C@@H](CC(=O)O)C(=O)NCC(=O)N[C@H](CO)C(=O)N[C@@H](CCC(N)=O)C(=O)N[C@@H](CC(=O)c2ccccc2N)C(=O)O[C@@H]1C
- fold change (FC) [3]: 10

SMILES: CCCCCCCCCC(=O)N[C@@H](Cc1c[nH]c2ccccc12)C(=O)N[C@H](CC(N)=O)C(=O)N[C@@H](CC(=O)O)C(=O)N[C@@H]1C(=O)NCC(=O)N[C@@H](CCCN)C(=O)N[C@@H](CC(=O)O)C(=O)N[C@H](CC(N)=O)C(=O)N[C@@H](CC(=O)O)C(=O)NCC(=O)N[C@H](CO)C(=O)N[C@@H]([C@H](C)CC(=O)O)C(=O)N[C@@H](CC(=O)c2ccccc2N)C(=O)O[C@@H]1C
- fold change (FC) [4]: 16

SMILES: C[C@H]1NC(=O)[C@H](CC(=O)O)NC(=O)[C@H](CCCN)NC(=O)CNC(=O)[C@@H](NC(=O)[C@H](CC(=O)O)NC(=O)[C@@H](CC(N)=O)NC(=O)[C@H](Cc2c[nH]c3ccccc23)NC(=O)CCCc2cc3cccc4c5cccc6cccc(c(c2)c34)c65)[C@@H](C)OC(=O)[C@H](CC(=O)c2ccccc2N)NC(=O)[C@H]([C@@H](C)CC(=O)O)NC(=O)[C@@H](CO)NC(=O)CNC(=O)[C@H](CC(=O)O)NC1=O
- MIC [13]: 3 µg/mL (≈ 1.68 µM)
